Experiments:
SETVI (Foxtail, Green) = assay: Preemergence herbicidal evaluation; assay type: in vivo, Setaria viridis; conditions: rated 4-5 weeks after treatment
Outline: (§1)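 Preemergence soil application of compound, sprayed in aqueous acetone at rates equivalent to about 0.0156 to 0.500 kg per hectare onto freshly sown cups. Plant response was judged by eye on a 0-9 scale four to five weeks later.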

ABUTH (Velvetleaf) = assay: Postemergence herbicidal evaluation; assay type: in vivo, Abutilon theophrasti
Outline: (§2)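 Seedlings grown about two weeks were sprayed at 40 psi with compound dispersed in 50/50 acetone/water plus 0.5% TWEEN 20, at about 0.0156 to 0.500 kg/ha. Plants were kept in the greenhouse and scored 4–5 weeks later on a 0–9 visual scale against untreated controls.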

MOOVA (Monochoria) = assay: Preemergence weed control under flooded paddy conditions; assay type: in vivo, Monochoria vaginalis; conditions: rated 3-4 weeks after treatment
Outline: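 Ratings on a 0-9 visual scale cover stand, vigor, malformation, size, chlorosis and overall appearance relative to a control, taken three to four weeks post-treatment. Application was into flood water over freshly sown silt loam at roughly 0.0313 to 0.500 kg/ha.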

CYPIR (Rice Flatsedge) = assay: Postemergence weed control under flooded paddy conditions; assay type: in vivo, Cyperus iria; conditions: postemergence weeds, 3-4 weeks after treatment
Outline: (§3)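 With weeds 3 to 5 cm tall and rice at the 1.5 to 2.5 leaf stage, containers were flooded and water held 1.5 to 3 cm above soil. Compounds in 50/50 v/v aqueous/acetone went into the flood water at about 0.0313 to 0.500 kg/ha a.i. Effects were visually rated 0–9 against controls after three to four weeks in the greenhouse.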

[1] = test system: IPOHE (Morningglory, Ivyleaf); assay: Preemergence herbicidal evaluation; assay type: in vivo, Ipomoea hederacea; conditions: rated 4-5 weeks after treatment
Outline: as §1

ECHCG (Barnyardgrass) = assay: Preemergence herbicidal evaluation; assay type: in vivo, Echinochloa crus-galli; conditions: rated 4-5 weeks after treatment
Outline: as §1

[2] = test system: TRZAWR (Wheat, Winter, cv Riband); assay: Preemergence herbicidal evaluation; assay type: in vivo, Triticum aestivum; conditions: rated 4-5 weeks after treatment
Outline: as §1

[3] = test system: ECHORC (Watergrass (Calif.)); assay: Postemergence weed control under flooded paddy conditions; assay type: in vivo, Echinochloa oryzoides; conditions: postemergence weeds, 3-4 weeks after treatment
Outline: as §3

[4] = test system: TRZAWR (Wheat, Winter, cv Riband); assay: Postemergence herbicidal evaluation; assay type: in vivo, Triticum aestivum
Outline: as §2

[5] = test system: ECHORC (Watergrass (Calif.)); assay: Preemergence weed control under flooded paddy conditions; assay type: in vivo, Echinochloa oryzoides; conditions: rated 3-4 weeks after treatment
Outline: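 Seeds or propagules sown in silt loam kept flooded 1.5-3 cm; compounds in 50/50 acetone/water pipetted into flood water at about 0.0313 to 0.500 kg/ha. Greenhouse; visual 0-9 rating versus untreated control 3-4 weeks after treatment.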

[6] = test system: CHEAL (Lambsquarters, Common); assay: Preemergence herbicidal evaluation; assay type: in vivo, Chenopodium album; conditions: rated 4-5 weeks after treatment
Outline: as §1

[7] = test system: IPOHE (Morningglory, Ivyleaf); assay: Postemergence herbicidal evaluation; assay type: in vivo, Ipomoea hederacea
Outline: as §2

ORYSAT (Rice, Tebonnet) = assay: Preemergence herbicidal evaluation; assay type: in vivo, Oryza sativa, (L.) Tebonnet; conditions: rated 4-5 weeks after treatment
Outline: as §1

Cn1c(C(F)(F)F)cc(=O)n(-c2cc(N=C3SCC(=O)N3CC(=O)NS(C)(=O)=O)c(Cl)cc2F)c1=O [Compound 38, 2-{{2-Chloro-5-[3,6-dihydro-3-methyl-2,6-dioxo-4-(trifluoromethyl)-1(2H)-pyrimidinyl]-4-fluoro-phenyl}imino}-N-(methylsulfonyl)-4-oxo-3-thiazolidineacetamide]
Preemergence herbicidal rating SETVI (SETVI (Foxtail, Green); rate 0.0313 kg/ha): 0.0 | Preemergence herbicidal rating SETVI (SETVI (Foxtail, Green); rate 0.0625 kg/ha): 3.0 | Preemergence herbicidal rating SETVI (SETVI (Foxtail, Green); rate 0.1250 kg/ha): 7.0 | Preemergence herbicidal rating SETVI (SETVI (Foxtail, Green); rate 0.2500 kg/ha): 9.0 | Postemergence herbicidal rating ABUTH (ABUTH (Velvetleaf); Rate 0.0156 kg/ha): 9.0 | Postemergence herbicidal rating ABUTH (ABUTH (Velvetleaf); Rate 0.0313 kg/ha): 9.0 | Postemergence herbicidal rating ABUTH (ABUTH (Velvetleaf); Rate 0.0625 kg/ha): 9.0 | Postemergence herbicidal rating ABUTH (ABUTH (Velvetleaf); Rate 0.1250 kg/ha): 9.0 | Postemergence herbicidal rating ABUTH (ABUTH (Velvetleaf); Rate 0.2500 kg/ha): 9.0 | Herbicidal rating MOOVA (MOOVA (Monochoria); 0.0313 kg/ha): 9.0 | Herbicidal rating MOOVA (MOOVA (Monochoria); 0.0625 kg/ha): 9.0 | Herbicidal rating MOOVA (MOOVA (Monochoria); 0.1250 kg/ha): 9.0 | Herbicidal rating MOOVA (MOOVA (Monochoria); 0.2500 kg/ha): 9.0 | Herbicidal rating CYPIR (CYPIR (Rice Flatsedge); rate 0.0313 kg/ha): 3.0 | Herbicidal rating CYPIR (CYPIR (Rice Flatsedge); rate 0.0625 kg/ha): 3.0 | Herbicidal rating CYPIR (CYPIR (Rice Flatsedge); rate 0.1250 kg/ha): 5.0 | Herbicidal rating CYPIR (CYPIR (Rice Flatsedge); rate 0.2500 kg/ha): 5.0 | Preemergence herbicidal rating IPOHE ([1]; rate 0.0313 kg/ha): 0.0 | Preemergence herbicidal rating IPOHE ([1]; rate 0.0625 kg/ha): 4.0 | Preemergence herbicidal rating IPOHE ([1]; rate 0.1250 kg/ha): 5.0 | Preemergence herbicidal rating IPOHE ([1]; rate 0.2500 kg/ha): 9.0 | Preemergence herbicidal rating ECHCG (ECHCG (Barnyardgrass); rate 0.0313 kg/ha): 0.0 | Preemergence herbicidal rating ECHCG (ECHCG (Barnyardgrass); rate 0.0625 kg/ha): 0.0 | Preemergence herbicidal rating ECHCG (ECHCG (Barnyardgrass); rate 0.1250 kg/ha): 0.0 | Preemergence herbicidal rating ECHCG (ECHCG (Barnyardgrass); rate 0.2500 kg/ha): 1.0 | Preemergence herbicidal rating TRZAWR ([2]; rate 0.0313 kg/ha): 0.0 | Preemergence herbicidal rating TRZAWR ([2]; rate 0.0625 kg/ha): 0.0 | Preemergence herbicidal rating TRZAWR ([2]; rate 0.1250 kg/ha): 2.0 | Preemergence herbicidal rating TRZAWR ([2]; rate 0.2500 kg/ha): 7.0 | Herbicidal rating ECHORC ([3]; rate 0.0313 kg/ha): 0.0 | Herbicidal rating ECHORC ([3]; rate 0.0625 kg/ha): 2.0 | Herbicidal rating ECHORC ([3]; rate 0.1250 kg/ha): 4.0 | Herbicidal rating ECHORC ([3]; rate 0.2500 kg/ha): 7.0 | Postemergence herbicidal rating TRZAWR ([4]; Rate 0.0156 kg/ha): 5.0 | Postemergence herbicidal rating TRZAWR ([4]; Rate 0.0313 kg/ha): 5.5 | Postemergence herbicidal rating TRZAWR ([4]; Rate 0.0625 kg/ha): 6.5 | Postemergence herbicidal rating TRZAWR ([4]; Rate 0.1250 kg/ha): 8.0 | Postemergence herbicidal rating TRZAWR ([4]; Rate 0.2500 kg/ha): 8.0 | Herbicidal rating ECHORC ([5]; 0.0313 kg/ha): 0.0 | Herbicidal rating ECHORC ([5]; 0.0625 kg/ha): 2.0 | Herbicidal rating ECHORC ([5]; 0.1250 kg/ha): 4.0 | Herbicidal rating ECHORC ([5]; 0.2500 kg/ha): 7.0 | Preemergence herbicidal rating CHEAL ([6]; rate 0.0313 kg/ha): 9.0 | Preemergence herbicidal rating CHEAL ([6]; rate 0.0625 kg/ha): 9.0 | Preemergence herbicidal rating CHEAL ([6]; rate 0.1250 kg/ha): 9.0 | Preemergence herbicidal rating CHEAL ([6]; rate 0.2500 kg/ha): 9.0 | Postemergence herbicidal rating IPOHE ([7]; Rate 0.0156 kg/ha): 9.0 | Postemergence herbicidal rating IPOHE ([7]; Rate 0.0313 kg/ha): 9.0 | Postemergence herbicidal rating IPOHE ([7]; Rate 0.0625 kg/ha): 9.0 | Postemergence herbicidal rating IPOHE ([7]; Rate 0.1250 kg/ha): 9.0 | Postemergence herbicidal rating IPOHE ([7]; Rate 0.2500 kg/ha): 9.0 | Preemergence herbicidal rating ORYSAT (ORYSAT (Rice, Tebonnet); rate 0.0313 kg/ha): 0.0 | Preemergence herbicidal rating ORYSAT (ORYSAT (Rice, Tebonnet); rate 0.0625 kg/ha): 0.0 | Preemergence herbicidal rating ORYSAT (ORYSAT (Rice, Tebonnet); rate 0.1250 kg/ha): 0.0 | Preemergence herbicidal rating ORYSAT (ORYSAT (Rice, Tebonnet); rate 0.2500 kg/ha): 2.0

— patent publication US20020137929A1, “1 - (3-heterocyclylphenyl) isothiourea, -isourea, -guanidine and -amidine herbicidal agents” (Intellectual Property Department, BASF Aktiengesellschaft, priority 1998, published 2002)
